Measured values reported in publication PMC7451656, “In vitro and in vivo growth inhibitory activities of cryptolepine hydrate against several Babesia species and Theileria equi” (PLoS Neglected Tropical Diseases, 2020).
Read-outs that look alike come from different tables or passages of the source.

What was measured:
B. caballi = test: Growth inhibitory fluorescence assay in vitro, B. caballi; assay type: cell-based, Babesia caballi; settings: for Selective index HFF: EC50 HFF / IC50 B. caballi; for Selective index MDBK: EC50 MDBK / IC50 B. caballi; for Selective index NIH/3T3: EC50 NIH/3T3 / IC50 B. caballi
Procedure: (§1) Texas strain of B. bovis and Argentina strain of B. bigemina were grown using bovine red blood cells (RBCs, collected from cattle farm of Obihiro University of Agriculture and Veterinary Medicine and stored at 4°C) in medium 199 (M199; Sigma-Aldrich, Tokyo, Japan) supplemented with 40% bovine serum, while RPMI 1640 medium (Sigma-Aldrich, Tokyo, Japan) was used for B. divergens (German strain) cultivation. The United States Department of Agriculture (USDA) strain of T. equi was grown in equine RBCs (collected from horse farm of Obihiro University of Agriculture and Veterinary Medicine and stored at 4°C) in M199 supplemented with 40% equine serum, and hypoxanthine (MP Biomedicals, Santa Ana, CA, USA) at a final concentration of 13.6 μg/ml was used as a vital supplement, while GIT medium was used for B. caballi (USDA strain) cultivation. Sixty μg/ml of streptomycin, 0.15 μg/ml of amphotericin B, and 60 U/ml of penicillin G (Sigma-Aldrich, Tokyo, Japan) were added to all media to prevent fungal and bacterial contamination. All parasite cultures were maintained for a long time in a microaerophilic stationary-phase culture system.
(§2) The inhibition assay was conducted according to the previously described protocol. Briefly, different concentrations of CRY, DA, CF, and AQ were added in triplicate in 96-well plates with 1% parasitemia and 2.5% HCT for B. bovis and B. bigemina and 5% HCT for B. divergens, B. caballi, and T. equi. The plates were incubated in a humidified incubator with 5% CO2, 5% O2, and 90% N2 for 96 h without changing the media. After 96 h, 100 μl of lysis buffer containing 2 × SG1 was directly added to each well and the plates were then wrapped in aluminum foil for protection from direct light and incubated for 6 h at room temperature. Afterward, the fluorescence was measured using a fluorescence spectrophotometer (Fluoroskan Ascent, Thermo Fisher Scientific, USA) at 485 nm excitation and 518 nm emission wavelengths. The relative fluorescence value was set to percentages after subtracting the mean values of the negative control. The experiment was repeated thrice.
(§3) The IC50 values of CRY, DA, CF, and AQ were determined using the nonlinear regression curve fit in GraphPad Prism (GraphPad Software Inc., San Diego, CA, USA). Combination index (CI) values for the drug combination were calculated using CompuSyn software, and the degree of synergism was determined as the weighted average of CI values using a formula [(1 x IC50) + (2 x IC75) + (3 x IC90) + (4 x IC95)]/10 [30]. The differences in parasitemia and hematology profiles in the B. microti–infected mice were analyzed using an independent Student’s t-test and one-way ANOVA test using GraphPad Prism version 5.0 for Windows (GraphPad Software Inc., San Diego, CA, USA). A P-value < 0.05 was considered statistically significant.

B. bovis = test: Growth inhibitory fluorescence assay in vitro, B. bovis; assay type: cell-based, Babesia bovis; settings: for IC50: Babesia bovis, in Bos taurus, B. bovis in vitro culture, fluorescence assay, 96 h; for Selective index HFF: EC50 HFF / IC50 B. bovis; for Selective index MDBK: EC50 MDBK / IC50 B. bovis
Procedure: as §1, §2, §3

[1] = system: B. microti small-subunit rRNA (ss-rRNA) gene; test: Nested PCR detection of B. microti DNA in blood of treated mice; assay type: in vivo, Babesia microti
Procedure: (§4) The promising effect of CRY in vitro encouraged us to evaluate its in vivo effects against B. microti in mice. The assay was conducted in accordance with the previously described protocol. In two separate trials, 35 female 8-week-old BALB/c mice, housed under a pathogen-free environment with controlled humidity, temperature (22°C) and a 12 h light/ dark cycle were caged in seven groups, each group consisting of five mice. Six groups were i.p. injected with 0.5 ml of inoculum (1×10^7 B. microti iRBCs), while the seventh group was left uninfected and untreated to act as a negative control. When the average parasitemia in all infected mice reached approximately 1%, the 5-day drug treatment was initiated. The first and second groups were i.p. injected with 25 mg/kg body weight (BW) of DA and 5 mg/kg BW of CRY, respectively. The third group received 20 mg/kg BW of AQ orally, while the fourth and fifth groups were administered a combination of 2.5 mg/kg BW CRY + 12.5 mg/kg BW DA and 2.5 mg/kg BW CRY + 10 mg/kg AQ via a route similar to that of the single-drug treatment, respectively. The sixth group received 5% DMSO in physiological saline i.p. as a positive control. Parasitemia and hematology profiles (RBCs, hemoglobin (HGB), and HCT) were monitored every 2 and 4 days by microscopic examination and hematology analyzer (Celltac α MEK-6450, Nihon Kohden Corporation, Tokyo, Japan), respectively. On day 49, all mice were euthanized using an anesthesia system containing isoflurane and the blood was collected by cardiac puncture for PCR detection of the parasites.
The nested PCR (nPCR) that targeted the B. microti small-subunit rRNA (ss-rRNA) gene was performed in accordance with the previously described protocol and the genomic DNA was extracted from blood samples collected from all mice groups on day 49 post-infection (p.i.) using a QIAamp DNA Blood Mini Kit (Qiagen, Tokyo, Japan). PCR cycling conditions were performed as previously described and the bands with an expected size of 154 bp were considered positive.

B. microti = test: Chemotherapeutic effect against B. microti in mice (parasitemia); assay type: in vivo, Babesia microti; settings: for day p.i. on which parasitemia was undetectable by microscopy / peak parasitemia level: BALB/c mice; for peak parasitemia level: 5 days, day 10
Procedure: Rodent B. microti (Munich strain) was recovered from -80°C stock and injected intraperitoneally (i.p.) in two 8-week-old female BALB/c mice purchased from CLEA Japan (Clea Japan, Tokyo, Japan). The mice were euthanized using an anesthesia system containing isoflurane after parasitemia reached approximately 30% and the blood was collected by cardiac puncture to conduct the in vivo studies.
as §4

B. bigemina = test: Growth inhibitory fluorescence assay in vitro, B. bigemina; assay type: cell-based, Babesia bigemina; settings: for Selective index HFF: EC50 HFF / IC50 B. bigemina; for Selective index MDBK: EC50 MDBK / IC50 B. bigemina; for Selective index NIH/3T3: EC50 NIH/3T3 / IC50 B. bigemina
Procedure: as §1, §2, §3

B. divergens = test: Growth inhibitory fluorescence assay in vitro, B. divergens; assay type: cell-based, Babesia divergens; settings: for IC50: Babesia divergens; for Selective index HFF: EC50 HFF / IC50 B. divergens; for Selective index MDBK: EC50 MDBK / IC50 B. divergens; for Selective index NIH/3T3: EC50 NIH/3T3 / IC50 B. divergens
Procedure: as §1, §2, §3

T. equi = test: Growth inhibitory fluorescence assay in vitro, T. equi; assay type: cell-based, Theileria equi; settings: for Selective index HFF: EC50 HFF / IC50 T. equi; for Selective index MDBK: EC50 MDBK / IC50 T. equi; for Selective index NIH/3T3: EC50 NIH/3T3 / IC50 T. equi; for IC50: Theileria equi, T. equi in vitro culture, fluorescence assay, 96 h
Procedure: as §1, §2, §3

[2] = B. divergens in vitro culture, fluorescence assay, 96 h, read-out: IC50

O=C1C(O)=C([C@H]2CC[C@H](c3ccc(Cl)cc3)CC2)C(=O)c2ccccc21 [AQ, atovaquone]
Selective index HFF (B. caballi): ˃ 980.4
Selective index MDBK (B. caballi): ˃ 980.4
Selective index NIH/3T3 (B. caballi): ˃ 980.4
IC50 (B. bovis): 39 ± 0.002 nM
Selective index HFF (B. bovis): ˃ 2564.1
Selective index MDBK (B. bovis): ˃ 2564.1
Selective index NIH/3T3 (B. bovis; EC50 NIH/3T3 / IC50 B. bovis): ˃ 2564.1
parasite DNA in blood (nPCR) ([1]; day 49, 20 mg/kg AQ): not detected
day p.i. on which parasitemia was undetectable by microscopy (B. microti; 20 mg/kg AQ oral): 18 days
peak parasitemia level (B. microti; 20 mg/kg AQ oral): 9%
Selective index HFF (B. bigemina): ˃ 142.7
Selective index MDBK (B. bigemina): ˃ 142.7
Selective index NIH/3T3 (B. bigemina): ˃ 142.7
IC50 (B. divergens; [2]): 38 ± 0.002 nM
Selective index HFF (B. divergens): ˃ 2631.6
Selective index MDBK (B. divergens): ˃ 2631.6
Selective index NIH/3T3 (B. divergens): ˃ 2631.6
Selective index HFF (T. equi): ˃ 1052.6
Selective index MDBK (T. equi): ˃ 1052.6
Selective index NIH/3T3 (T. equi): ˃ 1052.6
IC50 (T. equi): 95 ± 0.065 nM

Cn1c2c3ccccc3nc-2cc2ccccc21 [CRY, Cryptolepine hydrate]
concentration at which in vitro growth was significantly inhibited (B. caballi; B. caballi, t-test P = 0.001): 0.03 µM
IC50 (B. caballi; Babesia caballi, B. caballi in vitro culture, fluorescence assay, 96 h): 600 ± 0.53 nM
Selective index HFF (B. caballi): ˃ 166.7
Selective index MDBK (B. caballi): 144.45
Selective index NIH/3T3 (B. caballi): 158.82
concentration at which in vitro growth was significantly inhibited (B. bovis; B. bovis, t-test P = 0.005): 0.15 µM
IC50 (B. bovis): 1740 ± 0.37 nM
Selective index HFF (B. bovis): ˃ 57.5
Selective index MDBK (B. bovis): 49.81
parasite DNA in blood (nPCR) ([1]; day 49, 5 mg/kg CRY): still detected
day p.i. on which parasitemia was undetectable by microscopy (B. microti; 5 mg/kg CRY i.p.): 28 days
peak parasitemia level (B. microti; 5 mg/kg CRY i.p., DMSO control 62.6% on day 8): 12.9%
growth of B. microti in mice (B. microti; CRY 5 mg/kg): effectively inhibited
concentration at which in vitro growth was significantly inhibited (B. bigemina; B. bigemina, t-test P = 0.005): 0.15 µM
IC50 (B. bigemina; Babesia bigemina, B. bigemina in vitro culture, fluorescence assay, 96 h): 1400 ± 0.6 nM
Selective index HFF (B. bigemina): ˃ 71.4
Selective index MDBK (B. bigemina): 61.91
Selective index NIH/3T3 (B. bigemina): 68.07
concentration at which in vitro growth was significantly inhibited (B. divergens; B. divergens, t-test P = 0.003): 0.078 µM
IC50 (B. divergens; [2]): 790 ± 0.32 nM
IC50 (B. divergens; B. divergens, fluorescence assay after 96 h, three trials, read-out: IC50 (Fig 1)): 788 ± 320 nM
Selective index HFF (B. divergens): ˃ 126.9
Selective index MDBK (B. divergens): 109.71
Selective index NIH/3T3 (B. divergens): 120.62
Selective index HFF (T. equi): ˃ 136.9
Selective index MDBK (T. equi): 118.73
Selective index NIH/3T3 (T. equi): 130.54
concentration at which in vitro growth was significantly inhibited (T. equi; T. equi, t-test P = 0.02): 0.078 µM
IC50 (T. equi): 730 ± 0.025 nM
